The source of these data is US8367709B2, “Dipeptide analogs as coagulation factor inhibitors” (priority 2007, dated 2013).

Counter-ions that a name gives are not always drawn.

The target of one assay is T1, purified human Factor XIa (Homo sapiens, UniProt P03951).
T1 construct: purchased Haematologic Technologies
T1 sequence (P03951 19-387): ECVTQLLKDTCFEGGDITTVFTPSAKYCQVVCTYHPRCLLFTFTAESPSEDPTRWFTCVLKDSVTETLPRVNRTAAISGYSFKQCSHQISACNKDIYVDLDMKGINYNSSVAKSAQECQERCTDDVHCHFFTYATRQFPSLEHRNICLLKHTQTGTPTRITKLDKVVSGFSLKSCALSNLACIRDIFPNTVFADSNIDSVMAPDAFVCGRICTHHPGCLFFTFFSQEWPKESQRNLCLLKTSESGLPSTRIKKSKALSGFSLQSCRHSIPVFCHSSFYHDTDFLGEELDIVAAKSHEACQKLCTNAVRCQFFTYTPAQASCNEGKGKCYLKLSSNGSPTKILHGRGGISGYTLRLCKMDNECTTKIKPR
T1 sequence (P03951 388-625): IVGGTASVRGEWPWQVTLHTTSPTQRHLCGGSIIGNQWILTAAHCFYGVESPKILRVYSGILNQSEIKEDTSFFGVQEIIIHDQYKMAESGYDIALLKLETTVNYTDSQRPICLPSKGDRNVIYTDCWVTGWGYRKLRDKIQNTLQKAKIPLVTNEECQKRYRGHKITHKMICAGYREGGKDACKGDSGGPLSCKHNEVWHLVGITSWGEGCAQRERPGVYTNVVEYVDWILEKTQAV
In words: Factor XIa assay (chromogenic substrate S-2366 hydrolysis, Ki). The format is biochemical.
Settings: not given
How it is done: The effectiveness of compounds of the present invention as inhibitors of the coagulation factors XIa, VIIa, IXa, Xa, XIIa, plasma kallikrein or thrombin, can be determined using a relevant purified serine protease, respectively, and an appropriate synthetic substrate. The rate of hydrolysis of the chromogenic or fluorogenic substrate by the relevant serine protease was measured both in the absence and presence of compounds of the present invention. […] A decrease in the rate of absorbance or fluorescence change in the presence of inhibitor is indicative of enzyme inhibition. Such methods are known to one skilled in the art. The results of this assay are expressed as the inhibitory constant, Ki.
Values of Ki were determined by allowing the protease to react with the substrate in the presence of the inhibitor. Reactions were allowed to go for periods of 20-180 minutes (depending on the protease) and the velocities (rate of absorbance or fluorescence change versus time) were measured. The following relationships were used to calculate Ki values:
vs/vo=A+((B−A)/1+((IC50/(I)^n))) and […]
Turning to `CCOC(=O)Cc1ccc(NC(=O)[C@H](Cc2ccccc2)NC(=O)CCc2cc(Cl)ccc2-n2cnnn2)cc1` [Example 1, (S)-ethyl 2-(4-(2-(3-(5-chloro-2-(1H-tetrazol-1-yl)phenyl)propan-amideo)-3-phenylpropanamido)phenyl)acetate], the affinity, expressed as Ki, was 140 nM.
Same read-out and setting: to `O=C(/C=C/c1c(F)ccc(Cl)c1F)N[C@@H](Cc1ccccc1)C(=O)Nc1ccc(C(=O)O)cc1` [Example 15, 4-{(S)-2-[(E)-3-(3-chloro-2,6-difluoro-phenyl)-acryloylamino]-3-phenyl-propionylamino}-benzoic acid] belongs 291 nM.
Same read-out and setting: to `C[C@H](NC(=O)/C=C/c1cc(Cl)ccc1-n1cnnn1)C(=O)Nc1ccc(CC(=O)O)cc1` [Example 51, (4-{(S)-2-[(E)-3-(5-chloro-2-tetrazol-1-yl-phenyl)-acryloylamino]-propionylamino}-phenyl)-acetic acid] belongs 317 nM; to `O=C(/C=C/c1c(F)ccc(Cl)c1F)N[C@@H](Cc1ccccc1)C(=O)Nc1ccc2cn[nH]c2c1` [Example 57, (E)-3-(3-chloro-2,6-difluoro-phenyl)-N—[(S)-1-(1H-indazol-6-ylcarbamoyl)-2-phenyl-ethyl]-acrylamide], 3570 nM; to `NCc1ccc(Cl)cc1/C=C/C(=O)N[C@@H](Cc1ccccc1)C(=O)Nc1ccc(C(=O)O)cc1` [Example 83, (S,E)-4-(2-(3-(2-(aminomethyl)-5-chlorophenyl)acrylamido)-3-phenylpropanamido)benzoic acid, TFA salt], 63.9 nM.
Take `COC(=O)c1ccc2nc(NC(=O)[C@H](Cc3ccccc3)NC(=O)/C=C/c3cc(Cl)ccc3-n3cnnn3)nn2c1` [Example 92, (S,E)-methyl 2-(2-(3-(5-chloro-2-(1H-tetrazol-1-yl)phenyl)acrylamido)-3-phenylpropanamido)-[1,2,4]triazolo[1,5-a]pyridine-6-carboxylate]: the affinity corresponds to a Ki of 53.9 nM.
As for `COC(=O)Nc1ccc2c(c1)CCN(C(=O)[C@H](Cc1ccccc1)NC(=O)/C=C/c1cc(Cl)ccc1-n1cnnn1)C2` [Example 127, (S,E)-methyl 2-(2-(3-(5-chloro-2-(1H-tetrazol-1-yl)phenyl)acrylamido)-3-phenylpropanoyl)-1,2,3,4-tetrahydroisoquinolin-6-ylcarbamate], the affinity corresponds to a Ki of 7800 nM.
Still for that read-out and setting: to `O=C(/C=C/c1cc(Cl)ccc1-n1cnnn1)N[C@@H](Cc1ccccc1)C(=O)Nc1cccn2c(C(F)(F)F)nnc12` [Example 142, (S,E)-3-(5-chloro-2-(1H-tetrazol-1-yl)phenyl)-N-(1-oxo-3-phenyl-1-(3-(trifluoromethyl)-[1,2,4]-triazolo[4,3-a]pyridin-8-ylamino)propan-2-yl)acrylamide] belongs 3850 nM; to `O=C(N[C@@H](Cc1ccccc1)C(=O)NCCc1cc(Cl)ccc1-n1cnnn1)c1n[nH]c2ccccc12` [Example 149, (S)—N-(1-(5-chloro-2-(1H-tetrazol-1-yl)phenethylamino)-1-oxo-3-phenylpropan-2-yl)-1H-indazole-3-carboxamide], 6500 nM; to `O=C1CNC(=O)c2ccc(C(=O)N[C@@H](Cc3ccccc3)C(=O)NCCc3cc(Cl)ccc3-n3cnnn3)cc2N1` [Example 187, (S)—N-(1-(5-chloro-2-(1H-tetrazol-1-yl)phenethylamino)-1-oxo-3-phenylpropan-2-yl)-2,5-dioxo-2,3,4,5-tetrahydro-1H-benzo[e][1,4]diazepine-8-carboxamide], 9370 nM.
Still for that read-out and setting: to `O=C(/C=C/c1cc(Cl)ccc1-n1cnnn1)N[C@@H](Cc1ccccc1)C(=O)N[C@@H]1CCCCNC1=O` [Example 196] belongs 8320 nM; to `Nc1nc2ccc(C(=O)N[C@@H](Cc3ccccc3)C(=O)NCCc3cc(Cl)ccc3-n3cnnn3)cc2s1` [Example 204, (S)-2-amino-N-(1-(5-chloro-2-(1H-tetrazol-1-yl)phenethylamino)-1-oxo-3-phenylpropan-2-yl)benzo[d]thiazole-6-carboxamide, TFA salt], 27.6 nM.
On the same count and under the same terms, to `O=C1CSc2cc(C(=O)N[C@@H](Cc3ccccc3)C(=O)NCCc3cc(Cl)ccc3-n3cnnn3)ccc2N1` [Example 206, (S)—N-(1-(5-chloro-2-(1H-tetrazol-1-yl)phenethylamino)-1-oxo-3-phenylpropan-2-yl)-3-oxo-3,4-dihydro-2H-benzo[b][1,4]thiazine-7-carboxamide] belongs 19.5 nM.

Staying with this assay, now noted: purified human Factor XIa 75-200 pM, substrate S-2366, 50 mM HEPES pH 7.4; read-out: Factor XIa Ki.
`Nc1n[nH]c2cc(NC(=O)[C@H](Cc3ccccc3)NC(=O)C[S+]([O-])c3cc(Cl)ccc3-n3cnnn3)ccc12` (single isomer, unassigned; isomer b) [Example 133]: the Ki – broadly, the dissociation constant of the complex between target and ligand, obtained from inhibition or displacement – stood at 672 nM.
For the compound `COC(=O)Nc1ccc(NC(=O)[C@H](Cc2ccccc2)NC(=O)/C=C/c2cc(Cl)ccc2-n2cnnn2)c(Cl)c1` [Example 14, (3-chloro-4-{(S)-2-[(E)-3-(5-chloro-2-tetrazol-1-yl-phenyl)-acryloylamino]-3-phenyl-propionylamino}-phenyl)-carbamic acid methyl ester], the Ki was found to be 2960 nM.
Same read-out and setting: to `O=C(/C=C/c1cc(Cl)ccc1-n1cnnn1)N[C@@H](Cc1ccccc1)C(=O)Nc1ncc(C(=O)O)s1` [Example 21, 2-{(S)-2-[(E)-3-(5-chloro-2-tetrazol-1-yl-phenyl)-acryloylamino]-3-phenyl-propionylamino}-thiazole-5-carboxylic acid] belongs 105 nM; to `O=C(/C=C/c1cc(Cl)ccc1-n1cnnn1)N[C@@H](Cc1ccccc1)C(=O)Nc1ccc2[nH]ncc2c1` [Example 30, (E)-3-(5-chloro-2-tetrazol-1-yl-phenyl)-N—[(S)-1-(1H-indazol-5-ylcarbamoyl)-2-phenyl-ethyl]-acrylamide], 12.7 nM.
`O=C(/C=C/c1cc(Cl)ccc1-n1cnnn1)N[C@@H](Cc1ccccc1)C(=O)Nc1ccc2c(=O)[nH][nH]c(=O)c2c1` [Example 36, (E)-3-(5-chloro-2-tetrazol-1-yl-phenyl)-N—[(S)-1-(1,4-dioxo-1,2,3,4-tetrahydro-phthalazin-6-ylcarbamoyl)-2-phenyl-ethyl]-acrylamide]: the Ki was 33.9 nM.
`O=C(/C=C/c1cc(Cl)ccc1-n1cnnn1)N[C@@H](Cc1cccc(F)c1)C(=O)Nc1ccc(-c2nnn[nH]2)cc1` [Example 43, (E)-3-(5-chloro-2-tetrazol-1-yl-phenyl)-N-{(S)-2-(3-fluoro-phenyl)-1-[4-(1H-tetrazol-5-yl)-phenylcarbamoyl]-ethyl}-acrylamide]: the inhibitory constant (Ki) worked out at 1.61 nM.
Same read-out and setting: to `CN1CCN(C(=O)C[C@H](NC(=O)/C=C/c2cc(Cl)ccc2-n2cnnn2)C(=O)Nc2ccc(C(=O)O)cc2)CC1` [Example 45, 4-[(S)-2-[(E)-3-(5-chloro-2-tetrazol-1-yl-phenyl)-acryloylamino]-4-(4-methyl-piperazin-1-yl)-4-oxo-butyrylamino]-benzoic acid] belongs 33.4 nM.
As for `CC[C@H](NC(=O)/C=C/c1cc(Cl)ccc1-n1cnnn1)C(=O)Nc1ccc(NC(=O)OC)cc1` [Example 50, (4-{(S)-2-[(E)-3-(5-chloro-2-tetrazol-1-yl-phenyl)-acryloylamino]-butyrylamino}-phenyl)-carbamic acid methyl ester], the Ki turned out to be 1120 nM.
Turning to `O=C(/C=C/c1cc(Cl)ccc1-n1cnnn1)N[C@@H](Cc1ccccc1)C(=O)Nc1ccc2c(c1)CCNC2` [Example 53, (E)-3-(5-chloro-2-tetrazol-1-yl-phenyl)-N—[(S)-2-phenyl-1-(1,2,3,4-tetrahydro-isoquinolin-6-ylcarbamoyl)-ethyl]-acrylamide], the Ki was 244 nM.
On the same count and under the same terms, to `O=C(/C=C/c1cc(Cl)ccc1-n1cnnn1)N[C@@H](Cc1ccccc1)C(=O)Nc1nc2ccc(F)cc2s1` [Example 97, (S,E)-3-(5-chloro-2-(1H-tetrazol-1-yl)phenyl)-N-(1-(6-fluorobenzo[d]thiazol-2-ylamino)-1-oxo-3-phenylpropan-2-yl)acrylamide] belongs 533 nM; to `O=C(/C=C/c1cc(Cl)ccc1-n1cnnn1)N[C@@H](Cc1ccccc1)C(=O)Nc1ccc(N2CCSCC2)cc1` [Example 99, (S,E)-3-(5-chloro-2-(1H-tetrazol-1-yl)phenyl)-N-(1-oxo-3-phenyl-1-(4-thiomorpholinophenylamino)propan-2-yl)acrylamide, TFA salt], 1480 nM.
With `COC(=O)c1ccc(NC(=O)[C@H](Cc2ccccc2)NC(=O)/C=C/c2cc(Cl)ccc2-n2cnnn2)nc1` [Example 103, (S,E)-methyl 6-(2-(3-(5-chloro-2-(1H-tetrazol-1-yl)phenyl)acrylamido)-3-phenylpropanamido)nicotinate, TFA salt], the Ki amounted to 112 nM.
Still for that read-out and setting: to `O=C(/C=C/c1cc(Cl)ccc1-n1cnnn1)N[C@@H](Cc1ccccc1)C(=O)Nc1ccc2c(c1)C(=O)NC2` [Example 129, (S,E)-3-(5-chloro-2-(1H-tetrazol-1-yl)phenyl)-N-(1-oxo-1-(3-oxoisoindolin-5-ylamino)-3-phenylpropan-2-yl)acrylamide] belongs 67.9 nM; to `O=C(/C=C/c1cc(Cl)ccc1-n1cnnn1)N[C@@H](Cc1ccccc1)C(=O)Nc1n[nH]c2ncccc12` [Example 137, (S,E)-N-(1-(1H-pyrazolo[3,4-b]pyridin-3-ylamino)-1-oxo-3-phenylpropan-2-yl)-3-(5-chloro-2-(1H-tetrazol-1-yl)phenyl)acrylamide, TFA salt], 53.9 nM.
As to `COP(=O)(CCOC(=O)Nc1ccc(NC(=O)[C@H](Cc2ccccc2)NC(=O)/C=C/c2cc(Cl)ccc2-n2cnnn2)cc1)OC` [Example 171, (S,E)-2-(dimethoxyphosphoryl)ethyl 4-(2-(3-(5-chloro-2-(1H-tetrazol-1-yl)phenyl)-acrylamido)-3-phenylpropanamido)phenylcarbamate], the Ki stood at 38.1 nM.
